According to patent US12661353B2, “SPT5 inhibitors and uses thereof” (Yeda Research and Development Co. Ltd., priority 2020, dated 2026):

Legend:
Assay type in all cases: cell-based, human
A20 mRNA = experiment: Splicing of A20: mature/immature transcripts, RT-qPCR; settings: following TNFα induction, 50 μM
Description: Bars represent the mean of at least 3±SEM independent experiments. The asterisks denote statistical significance differences relative to DMSO+TNFα control according to Student's t tests (typically one tailed, paired): *p<0.05; **p<0.01; ***p<0.005; ****p<0.001. […] Shown are mRNA levels of A20 (normalized to GAPDH) in Hela cells treated with SPI-21 and TNFα and incubated with actinomycin D for the indicated time points, as determined by real-time qPCR. The data points present the mean of 3±SEM independent experiments. […] Shown are levels of mature and immature transcripts in cells incubated for 1 hour with DMSO (vehicle control) or 50 μM of SPI-21 or SPI-18 followed by treatment with TNFα for an additional one hour, as determined by real-time qPCR using primers spanning exons 3 and 4 (mature, black arrows shown in the scheme of G, SEQ ID NOs: 47 and 48) or intron 1 and exon 2 (immature, red arrows shown in the scheme of G, SEQ ID NOs: 49 and 50). […] DMSO (vehicle control), SPI-21 or SPI-18 treated cells were induced by TNFα for the indicated times and the levels of IκBα and β-Tubulin proteins were analyzed by western blot as indicated. […] The occupancy of the A20 gene was analyzed by qPCR using primers from the first (A, SEQ ID NOs: 55 and 56), third (B, SEQ ID NOs: 57 and 58) and last (C, SEQ ID NOs: 59 and 60) exon-intron junctions. […]

A20 gene = experiment: ChIP of Pol II and Spt5 occupancy of the A20 gene; settings: for TNFα induction of Pol II and Spt5 levels at the A20 loci: TNFα+ 30 minutes; for Spt5 and Pol II occupancy at 3 loci of the A20 gene: basal conditions (TNFα-)
Description: Chromatin immunoprecipitation (ChIP)—HeLa cells were treated with DMSO (vehicle control) or the indicated compound (50 μM; 60 minutes), followed by TNF-α induction (30 minutes) in 100-mm plates. Following, the cells were cross-linked with 1% formaldehyde for 10 minutes at room temperature, and fixation was terminated by adding 1/20 volume of 2.5 M glycine.
Chromatin extraction and immunoprecipitation were carried out as previously described in Diamant et al., 2012. For immunoprecipitation (IP), 3 μg of anti-RNA polymerase II (ab817, Abcam) anti-Spt5 [previously described in Amir-Zilberstein et al., 2007] or control IgG (SC-2025, Santa Cruz Biotechnology) was added to 1 ml of the soluble chromatin DNA. IP and input samples were analyzed by qPCR as described above.
To further examine the impact of the identified SPIs on chromatin occupancy of Spt5 and Pol II, chromatin immunoprecipitation (ChIP) in the presence of DMSO, SPI-21 or SP-18 followed by 30 minutes TNFα treatment was performed. […] This finding is consistent with the increase in transcription under basal conditions exerted by SPI-21 but not by SPI-18 (FIG. 2A). Upon TNFα induction the levels of Pol II and Spt5 were dramatically elevated and this induction was diminished by both SPI-21 and SPI-18 at all the analyzed loci (FIG. 3G, TNFα+). This finding is consistent with the decrease in transcription under TNFα-induced conditions of both SPI-21 and SIP-18 (FIG. 3A).

HeLa cells = experiment: Cells viability assay (CellTiter-Glo), HeLa; settings: increasing concentrations, 48 h
Description: Cells viability assay—_HeLa cells were plated in an opaque-walled 96 well plate (50,000 cells per well) and treated with increasing concentrations of the tested SPI compounds (e.g., SPI-21 or SPI-18) for 48 hours. After equilibrating the plate and its contents at room temperature for 30 minutes, […] (1:1) of CellTiter-Glo® Reagent (G7571, Promega) was added to each well and shook for 2 minutes to induce cell lysis. Following 10 minutes incubation at room temperature, the luminescent signal was detected using the Cytation 5 instrument.
Spt5 was reported to be essential for cell growth and survival in mammalian cells (Komori et al., 2009).

Row | SMILES | mature/immature A20 mRNA ratio (A20 mRNA) | TNFα induction of Pol II and Spt5 levels at the A20 loci (A20 gene) | Spt5 and Pol II occupancy at 3 loci of the A20 gene (A20 gene) | cellular viability (HeLa cells)
1 | COc1ccc(C=CC(=O)c2cc(O)ccc2O)cc1 [SPI-21] | clear decrease in mature/immature ratio | diminished | moderate but significant enhancement | dramatically diminish cellular viability in a dose-dependent manner
2 | Nc1ccccc1SC(CC(=O)c1cccs1)c1cccs1 (centres unmarked) [SPI-18] | clear decrease in mature/immature ratio | diminished | unchanged | dramatically diminish cellular viability in a dose-dependent manner
